Results on 1 compound are retold here after patent US20250255845A1, “USE OF INTERLEUKIN (IL)-17A INHIBITOR IN PREPARATION OF MEDICAMENT FOR TREATING INFLAMMATORY DISEASE” (Xiangnan University, priority 2024, published 2025).

Molecules are shown by their SMILES.

The subject of one assay is p-STAT3. The experiment in a line: Immunohistochemistry of p-STAT3 in dorsal skin of IMQ-induced psoriasis mice. Format: in vivo, Balb/c mice. Conditions: preventive and therapeutic administration groups; dose-dependent. The protocol: (§1) Balb/c mice (female, 6-8 weeks, 20+2 g), with certificate number [SCXK (Xiang) 2021-0002], were purchased from Hunan SJA Laboratory Animal (Changsha, China). All mice were housed in an specific pathogen free (SPF)-grade animal room with a 12 h light/12 h dark cycle, and experiments were started after the mice were acclimated for one week. Next, 96 mice were randomly divided into 12 groups (8 mice/group), including Control group, Control solvent (white vaseline) group, IMQ group, IMQ solvent (white vaseline) group, preventive administration of positive medicament Clo group (IMQ+Clo 55 mg), therapeutic administration of positive medicament group (IMQ+Clo (A) 55 mg), preventive administration of Tan low-dose group (IMQ+Tan 40 μg/cm^2), medium-dose group (IMQ+Tan160 μg/cm^2), and high-dose group (IMQ+Tan 640 μg/cm^2), and therapeutic administration of Tan low-dose group (IMQ+Tan (A) 40 μg/cm^2), medium-dose group (IMQ+Tan (A) 160 μg/cm^2), and high-dose group (IMQ+Tan (A) 640 μg/cm^2). After the mice were anesthetized, a 2 cm×3 cm area on the back was selected for hair removal. Modeling began 48 h after hair removal, and all modeling mice were applied with 65 mg (55 mg on the back and 5 mg on each ear) of IMQ cream every morning for 10 d. […]

The next assay deals with p-STAT3 (Ser 727). Kind of assay: Western blot of p-STAT3 (Ser 727) in LPS-induced RAW264.7 cells. The format is cell-based, mouse. The protocol: (§2) RAW264.7 cell culture: mouse mononuclear macrophages (RAW264.7, ATCC) are cultured in a complete medium containing 10% fetal bovine serum (FBS), 1% double antibodies (penicillin and streptomycin), and 89% DMEM at 37° C. and 5% CO2. In this experiment, RAW264.7 cells from passages 3 to 8 are used for related test.
(§3) LPS (100 ng/ml) is added for stimulation, with or without Tan, and the cell supernatant is collected to detect the contents of NO, IL-23, IL-17A, TNF-α, and IL-6 in the cell supernatant. The cell lysate is collected and the protein expressions (STAT3, p-STAT3 (Ser727), and p-STAT3 (Tyr705)) are detected by Western blot. Total cell RNA is extracted and real-time fluorescence quantitative polymerase chain reaction (PCR) is conducted to detect the expression levels of IL-23, IL-17A, TNF-α, and IL-6 mRNA.
RAW264.7 cells in the logarithmic growth phase were inoculated in 100 mm culture dishes, and the cell density was adjusted to 1.6×10^6 cells/dish. After cultured for 24 h, different concentrations (5, 10, 20, 40 μM) of Tan were added to allow pretreatment for 2 h, and LPS (100 ng/ml) was added to allow incubation for 24 h. The original medium was removed, and the cells were washed 2 times with pre-cooled PBS buffer. Then, protein lysis buffer (300 μL per dish) was added for lysis on ice for 30 min. The supernatant was collected by centrifugation at 4° C., 12,000 rpm for 5 min, and the protein concentration was determined by BCA method. Next, 60 μg of total protein sample was loaded, separated by 10% Sodium Dodecyl Sulfate Polyacrylamide Gel Electrophoresis (SDS-PAGE) gel, and transferred to Polyvinylidene Fluoride (PVDF) membrane by electrophoresis. The membrane was blocked with 5% skim milk at room temperature for 1 h, and 3 mL of GAPDH, STAT3, p-STAT3 (Ser727), and p-STAT3 (Tyr705) antibodies were added and incubated overnight at 4°° C. […] Enhanced Chemiluminescence (ECL) color development was used for detection, and protein band quantification was performed using Image J software.

Another assay relates to STAT3. Kind of assay: Western blot of STAT3 in LPS-induced RAW264.7 cells. Conditions: 5-40 μM, among treatment groups; P>0.05. Format: cell-based, mouse. The protocol:
as §2, §3
RAW264.7 cells in the logarithmic growth phase were inoculated in 100 mm culture dishes, and the cell density was adjusted to 1.6×10^6 cells/dish. […] The supernatant was collected by centrifugation at 4° C., 12,000 rpm for 5 min, and the protein concentration was determined by BCA method. […] Enhanced Chemiluminescence (ECL) color development was used for detection, and protein band quantification was performed using Image J software.
For orientation: Immunoblotting shows a protein as a band on a membrane.

In another assay the test system is endothelial cells. Conditions: CN101947215A; cited from earlier work.
The test system of a further assay is IL-17A. Kind of assay: Immunohistochemistry of IL-17A in dorsal skin of IMQ-induced psoriasis mice. The format is in vivo, Balb/c mice. Conditions: preventive and therapeutic administration groups; dose-dependent. The protocol:
as §1

Assay [1] concerns IMQ-induced psoriasis mice. Kind of assay: Dorsal skin lesions of IMQ-induced psoriasis mice. Format: in vivo, Balb/c mice. The protocol:
Balb/c mice (female, 6-8 weeks, 20+2 g), with certificate number [SCXK (Xiang) 2021-0002], were purchased from Hunan SJA Laboratory Animal (Changsha, China). All mice were housed in an specific pathogen free (SPF)-grade animal room with a 12 h light/12 h dark cycle, and experiments were started after the mice were acclimated for one week. Next, 96 mice were randomly divided into 12 groups (8 mice/group), including Control group, Control solvent (white vaseline) group, IMQ group, IMQ solvent (white vaseline) group, preventive administration of positive medicament Clo group (IMQ+Clo 55 mg), therapeutic administration of positive medicament group (IMQ+Clo (A) 55 mg), preventive administration of Tan low-dose group (IMQ+Tan 40 μg/cm^2), medium-dose group (IMQ+Tan160 μg/cm^2), and high-dose group (IMQ+Tan 640 μg/cm^2), and therapeutic administration of Tan low-dose group (IMQ+Tan (A) 40 μg/cm^2), medium-dose group (IMQ+Tan (A) 160 μg/cm^2), and high-dose group (IMQ+Tan (A) 640 μg/cm^2). After the mice were anesthetized, a 2 cm×3 cm area on the back was selected for hair removal. Modeling began 48 h after hair removal, and all modeling mice were applied with 65 mg (55 mg on the back and 5 mg on each ear) of IMQ cream every morning for 10 d. In the Tan preventive administration groups, the low-dose group (40 μg/cm^2), the medium-dose group (160 μg/cm^2), and the high-dose group (640 μg/cm^2) were topically administered to the back and ears every afternoon starting from the first day of modeling for 10 d. In the Tan therapeutic administration groups, the low-dose group (40 μg/cm^2), the medium-dose group (160 μg/cm^2), and the high-dose group (640 μg/cm^2) were topically administered to the back and ears every afternoon starting from the 3rd day of modeling for 10 d. The mice in the preventive positive medicament group received Clo (55 mg/mouse, 45 mg on the back, 5 mg on each ear) treatment from the first day of modeling, and the mice in the therapeutic positive medicament group received Clo (55 mg/mouse, 45 mg on the back, 5 mg on each ear) treatment from the third day of modeling.

Another assay deals with NO. The experiment in a line: Griess assay of LPS-induced NO production in RAW264.7 cells. The format is cell-based, mouse. Here is the method: as §2, §3
RAW264.7 cells in the logarithmic growth phase were inoculated into a 48-well plate and the cell density was adjusted to 1.0×10^5 cells/well. After cultured for 24 h, the cells were stably adhered to the plate. The original medium was removed and different concentrations (5, 10, 20, 40 μM) of Tan were added to allow pretreatment for 1 h. […] OD540 nm value of the cell supernatant was detected according to the instructions of a Griess kit, and the NO content in the cell supernatant was calculated.

Turning to `COc1ccc(-c2cc(=O)c3c(OC)c(OC)c(OC)c(OC)c3o2)cc1` [Tan, tangeretin], the “expression level of p-STAT3 in the dorsal skin” value with p-STAT3 is given as “significantly reduced”. The “suppression of p-STAT3 (Ser 727) relative to p-STAT3 (Tyr 705)” value in the assay on p-STAT3 (Ser 727) is on record as “more pronounced suppression”. The “suppression of STAT3 phosphorylation (Ser 727) compared with positive control Clo” value with p-STAT3 (Ser 727) (40 μM) is listed as “comparable efficacy to the positive control”. Further, in the assay with p-STAT3 (Ser 727) (5-40 μM, vs LPS group, P<0.001, dose-dependent), the “expression of p-STAT3 (Ser 727) protein” value was “inhibited”. For the same compound, in the assay with STAT3, the STAT3 protein expression entry is reported as “no statistically significant change”. The “proliferation of endothelial cells / angiogenesis” value in the assay with endothelial cells is on record as “inhibit the proliferation of endothelial cells”. For the same compound, in the assay on IL-17A, the “expression level of IL-17A in the dorsal skin” value was “significantly reduced”. Besides, the “improvement of dorsal skin lesions compared with positive control Clo” value in assay [1] (high-dose (640 μg/cm^2) preventive and therapeutic groups) is recorded as “comparable to that of the positive control Clo”. The “erythema and scaling of dorsal skin” value in assay [1] (preventive and therapeutic topical administration, 40/160/640 μg/cm^2, vs IMQ group, dose-dependent) was “significant reduction in erythema and scaling”. Also, the “scales and erythema on the dorsal skin” value in assay [1] (preventive group (from first day of modeling)) is reported as “almost disappeared”. Further, the “back scales after treatment” value in assay [1] (therapeutic group (from 3rd day of modeling)) was “only a minimal amount of back scales remained”. Also, in the assay on NO (40 μM, 24 h), the “inhibitory effect on NO compared with positive control Clo” value is reported as “comparable to that of the positive control”. Moreover, the “NO content in the cell supernatant” value in the assay with NO (5-40 μM, 24 h, vs LPS group, P<0.001, dose-dependent) is on record as “significantly reduced”. In addition, in the assay with NO (48 h), the “inhibitory effect on the production of NO” value is “strong inhibitory effect”.
